US20070049593A1 (priority 2004, published 2007)
pIC50: −log10 of the molar value. Where a name gives a salt, the structure may show the parent alone.

molecular target: T1, HCV polymerase (Hepatitis C virus genotype 1b, UniProt P26663); assay: biochemical; design: species or system HCV BK strain
T1 construct: a region encoding NS5B (J Virol 1991 March, 65(3), 1105-13, 544 amino acids after deletion of 47 amino acids on the C-terminal); 6xHis (C); made in house; host or cells: Escherichia coli
Summary of the method: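 Recombinant HCV BK-strain NS5B (C-terminal 47 aa deleted, His6-tagged, E. coli), 0.5 μg/ml, run with 5 μg/ml in vitro-transcribed RNA template (polyU/3′X), ATP/GTP/CTP 50 μM, UTP 2 μM plus [3H]UTP, pH 7.5, 25° C, 90 min. TCA-precipitated RNA counted by scintillation; IC50 from activity with vs without compound.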

T1 sequence (P26663 2420-2963): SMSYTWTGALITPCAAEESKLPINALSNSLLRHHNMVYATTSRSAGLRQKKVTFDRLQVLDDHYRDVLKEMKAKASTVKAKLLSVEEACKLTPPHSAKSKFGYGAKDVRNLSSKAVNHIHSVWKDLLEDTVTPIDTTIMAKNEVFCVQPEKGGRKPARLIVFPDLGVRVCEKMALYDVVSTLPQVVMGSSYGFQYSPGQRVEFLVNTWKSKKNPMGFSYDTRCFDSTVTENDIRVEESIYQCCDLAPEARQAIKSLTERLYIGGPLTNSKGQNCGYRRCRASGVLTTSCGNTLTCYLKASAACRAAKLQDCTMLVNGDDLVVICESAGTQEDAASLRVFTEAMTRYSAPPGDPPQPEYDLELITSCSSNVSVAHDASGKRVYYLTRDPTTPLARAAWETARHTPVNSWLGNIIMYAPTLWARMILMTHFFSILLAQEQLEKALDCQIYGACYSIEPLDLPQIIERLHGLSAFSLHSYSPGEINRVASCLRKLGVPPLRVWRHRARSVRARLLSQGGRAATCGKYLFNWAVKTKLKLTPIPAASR

Structure (SMILES)	pIC50
CC(C)(NC(=O)c1ccc2c(C3CCCCC3)c3n(c2c1)CCOc1ccccc1-3)c1nc2cc(C(=O)O)ccc2[nH]1 [Example 2-214, 2-{1-[(12-cyclohexyl-6,7-dihydro-5-oxa-7a-azadibenzo[a,e]azulene-9-carbonyl)amino]-1-methylethyl}-1H-benzimidazole-5-carboxylic acid]	> 7.00
CC(C)(Cc1ccc(C(=O)O)cc1)NC(=O)c1ccc2c(C3CCCCC3)c3n(c2c1)CCOc1ccccc1-3 [Example 2-216, 4-{2-[(12-cyclohexyl-6,7-dihydro-5-oxa-7a-azadibenzo[a,e]azulene-9-carbonyl)amino]-2-methylpropyl}benzoic acid]	6.00 to 7.00
O=C(N[C@H](CO)Cc1ccc(O)cc1)c1ccc2c(C3CCCCC3)c3n(c2c1)CCOc1ccccc1-3 [Example 2-217, N—[(S)-1-hydroxymethyl-2-(4-hydroxyphenyl)ethyl]-12-cyclohexyl-6,7-dihydro-5-oxa-7a-azadibenzo[a,e]azulene-9-carboxamide]	> 7.00
COC(=O)[C@H](Cc1ccc(OC)cc1)NC(=O)c1ccc2c(C3CCCCC3)c3n(c2c1)CCOc1ccccc1-3 [Example 2-218, methyl (S)-2-[(12-cyclohexyl-6,7-dihydro-5-oxa-7a-azadibenzo[a,e]azulene-9-carbonyl)amino]-3-(4-methoxyphenyl)propionate]	> 7.00
COc1ccc(CC(C)(C)NC(=O)c2ccc3c(C4CCCCC4)c4n(c3c2)CCOc2ccccc2-4)cc1 [Example 2-219, N-[2-(4-methoxyphenyl)-1,1-dimethylethyl]-12-cyclohexyl-6,7-dihydro-5-oxa-7a-azadibenzo[a,e]azulene-9-carboxamide]	6.00 to 7.00
CC(C)(Cc1ccc(O)cc1)NC(=O)c1ccc2c(C3CCCCC3)c3n(c2c1)CCOc1ccccc1-3 [Example 2-220, N-[2-(4-hydroxyphenyl)-1,1-dimethylethyl]-12-cyclohexyl-6,7-dihydro-5-oxa-7a-azadibenzo[a,e]azulene-9-carboxamide]	6.00 to 7.00
O=C(O)c1ccc2c(C3CCCCC3)c3n(c2c1)CCOc1c-3cccc1N(CCc1ccccc1)CCN1CCCCC1 [Example 2-221, 12-cyclohexyl-4-{N-phenethyl-N-[2-(piperidin-1-yl)ethyl]amino}-6,7-dihydro-5-oxa-7a-azadibenzo[a,e]azulene-9-carboxylic acid]	> 7.00
CC(=O)N1CCC(NC(=O)c2ccc3c(C4CCCCC4)c4n(c3c2)CCOc2ccccc2-4)(C(=O)Nc2ccc(/C=C/C(=O)O)cc2)CC1 [Example 2-222, (E)-3-[4-({1-acetyl-4-[(12-cyclohexyl-6,7-dihydro-5-oxa-7a-azadibenzo[a,e]azulene-9-carbonyl)amino]piperidine-4-carbonyl}amino)phenyl]acrylic acid]	> 7.00
CN1CCC(NC(=O)c2ccc3c(C4CCCCC4)c4n(c3c2)CCOc2ccccc2-4)(C(=O)Nc2ccc(/C=C/C(=O)O)cc2)CC1 [Example 2-223, (E)-3-[4-({4-[(12-cyclohexyl-6,7-dihydro-5-oxa-7a-azadibenzo[a,e]azulene-9-carbonyl)amino]-1-methylpiperidine-4-carbonyl]amino)phenyl]acrylic acid]	> 7.00
CC(C)(COc1ccc(N)cc1)NC(=O)c1ccc2c(C3CCCCC3)c3n(c2c1)CCOc1ccccc1-3 [Example 2-224, N-[2-(4-aminophenoxy)-1,1-dimethylethyl]-12-cyclohexyl-6,7-dihydro-5-oxa-7a-azadibenzo[a,e]azulene-9-carboxamide]	> 7.00
CC(C)(NC(=O)c1ccc2c(C3CCCCC3)c3n(c2c1)CCOc1ccccc1-3)c1nc2ccc(C(N)=O)cc2[nH]1 [Example 2-225, N-[1-(6-carbamoyl-1H-benzimidazol-2-yl)-1-methylethyl]-12-cyclohexyl-6,7-dihydro-5-oxa-7a-azadibenzo[a,e]azulene-9-carboxamide]	> 7.00
CC(C)(COc1ccc(N2CCCC2=O)cc1)NC(=O)c1ccc2c(C3CCCCC3)c3n(c2c1)CCOc1ccccc1-3 [Example 2-226, N-{1,1-dimethyl-2-[4-(2-oxopyrrolidin-1-yl)phenoxy]ethyl}-12-cyclohexyl-6,7-dihydro-5-oxa-7a-azadibenzo[a,e]azulene-9-carboxamide]	> 7.00
Cc1nc(C(C)(C)NC(=O)c2ccc3c(C4CCCCC4)c4n(c3c2)CCOc2ccccc2-4)[nH]c1C(=O)O [Example 2-227, 2-{1-[(12-cyclohexyl-6,7-dihydro-5-oxa-7a-azadibenzo[a,e]azulene-9-carbonyl)amino]-1-methylethyl}-5-methyl-3H-imidazole-4-carboxylic acid]	> 7.00
CC(C)(NC(=O)c1ccc2c(C3CCCCC3)c3n(c2c1)CCOc1ccccc1-3)c1ccc(OCc2ccccc2)cc1 [Example 2-228, N-[1-(4-benzyloxyphenyl)-1-methylethyl]-12-cyclohexyl-6,7-dihydro-5-oxa-7a-azadibenzo[a,e]azulene-9-carboxamide]	> 7.00
O=C(O)CN1CCC(NC(=O)c2ccc3c(C4CCCCC4)c4n(c3c2)CCOc2ccccc2-4)(C(=O)O)CC1 [Example 2-229, 1-carboxymethyl-4-[(12-cyclohexyl-6,7-dihydro-5-oxa-7a-azadibenzo[a,e]azulene-9-carbonyl)amino]piperidine-4-carboxylic acid monohydrochloride]	> 7.00
CC(C)(NC(=O)c1ccc2c(C3CCCCC3)c3n(c2c1)CCOc1ccccc1-3)c1ccc(O)cc1 [Example 2-230, N-[1-(4-hydroxyphenyl)-1-methylethyl]-12-cyclohexyl-6,7-dihydro-5-oxa-7a-azadibenzo[a,e]azulene-9-carboxamide]	> 7.00
CCN(CCN1CCCCCC1)c1cccc2c1OCCn1c-2c(C2CCCCC2)c2ccc(C(=O)O)cc21 [Example 2-231, 4-{N-[2-(azepan-1-yl)ethyl]-N-ethylamino}-12-cyclohexyl-6,7-dihydro-5-oxa-7a-azadibenzo[a,e]azulene-9-carboxylic acid dihydrochloride]	> 7.00
CCN(CCC1CCN(C(C)=O)CC1)c1cccc2c1OCCn1c-2c(C2CCCCC2)c2ccc(C(=O)O)cc21 [Example 2-232, 4-{N-[2-(1-acetylpiperidin-4-yl)ethyl]-N-ethylamino)-12-cyclohexyl-6,7-dihydro-5-oxa-7a-azadibenzo[a,e]azulene-9-carboxylic acid]	> 7.00
CC(=O)N1CCC(CCN(C(C)=O)c2cccc3c2OCCn2c-3c(C3CCCCC3)c3ccc(C(=O)O)cc32)CC1 [Example 2-233, 4-(N-acetyl-N-[2-(1-acetylpiperidin-4-yl)ethyl]amino}-12-cyclohexyl-6,7-dihydro-5-oxa-7a-azadibenzo[a,e]azulene-9-carboxylic acid]	> 7.00
CC(C)(CN1CCC(O)CC1)NC(=O)c1ccc2c(C3CCCCC3)c3n(c2c1)CCOc1ccccc1-3 [Example 2-234, N-[2-(4-hydroxypiperidin-1-yl)-1,1-dimethylethyl]-12-cyclohexyl-6,7-dihydro-5-oxa-7a-azadibenzo[a,e]azulene-9-carboxamide]	6.00 to 7.00
COC(=O)c1nc(C(C)(C)NC(=O)c2ccc3c(C4CCCCC4)c4n(c3c2)CCOc2ccccc2-4)oc1C [Example 2-235, methyl 2-{1-[(12-cyclohexyl-6,7-dihydro-5-oxa-7a-azadibenzo[a,e]azulene-9-carbonyl)amino]-1-methylethyl}-5-methyloxazole-4-carboxylate]	> 7.00
